Results reported in the supplement of paper PMC10307832.

Key:
Assay in all cases: relative viability (nuclei count vs DMSO), 5 days (fraction); higher = more cells survive
Omipalisib + Trametinib = compound: COc1ncc(-c2ccc3nccc(-c4ccnnc4)c3c2)cc1NS(=O)(=O)c1ccc(F)cc1F [Omipalisib] + CC(=O)Nc1cccc(-n2c(=O)n(C3CC3)c(=O)c3c(Nc4ccc(I)cc4F)n(C)c(=O)c(C)c32)c1 [Trametinib] (partner 0.02 µM)
In short: (§1)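 Relative viability equals treated-well nuclei counts divided by vehicle-well nuclei counts. Counts came from 4× images of lung cancer cell lines grown in 1536-well plates for 5 days after pin-tool dosing on the day after seeding. Dosing used one drug alone or a fixed anchor-drug dose plus five library-drug doses (not always all listed) in √10 steps, and values are medians of duplicate plates.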

Omipalisib + Linsitinib = compound: COc1ncc(-c2ccc3nccc(-c4ccnnc4)c3c2)cc1NS(=O)(=O)c1ccc(F)cc1F [Omipalisib] + C[C@]1(O)C[C@@H](c2nc(-c3ccc4ccc(-c5ccccc5)nc4c3)c3c(N)nccn32)C1 [Linsitinib] (partner 1 µM)
In short: as §1

Omipalisib + Tozasertib = compound: COc1ncc(-c2ccc3nccc(-c4ccnnc4)c3c2)cc1NS(=O)(=O)c1ccc(F)cc1F [Omipalisib] + Cc1cc(Nc2cc(N3CCN(C)CC3)nc(Sc3ccc(NC(=O)C4CC4)cc3)n2)n[nH]1 [Tozasertib] (partner 0.1 µM)
In short: as §1

Omipalisib + Alpelisib = compound: COc1ncc(-c2ccc3nccc(-c4ccnnc4)c3c2)cc1NS(=O)(=O)c1ccc(F)cc1F [Omipalisib] + Cc1nc(NC(=O)N2CCC[C@H]2C(N)=O)sc1-c1ccnc(C(C)(C)C(F)(F)F)c1 [Alpelisib] (partner 2 µM)
In short: as §1

Omipalisib + Phenformin = compound: COc1ncc(-c2ccc3nccc(-c4ccnnc4)c3c2)cc1NS(=O)(=O)c1ccc(F)cc1F [Omipalisib] + N=C(N)NC(=N)NCCc1ccccc1 [Phenformin] (partner 250 µM)
In short: as §1

Omipalisib + Olaparib = compound: COc1ncc(-c2ccc3nccc(-c4ccnnc4)c3c2)cc1NS(=O)(=O)c1ccc(F)cc1F [Omipalisib] + O=C(c1cc(Cc2n[nH]c(=O)c3ccccc23)ccc1F)N1CCN(C(=O)C2CC2)CC1 [Olaparib] (partner 8 µM)
In short: as §1

Row | Cell Line | relative viability (Omipalisib + Trametinib; first compound 0.0003 µM) | relative viability (Omipalisib + Trametinib; first compound 0.003 µM) | relative viability (Omipalisib + Trametinib; first compound 0.03 µM) | relative viability (Omipalisib + Linsitinib; first compound 0.0003 µM) | relative viability (Omipalisib + Linsitinib; first compound 0.003 µM) | relative viability (Omipalisib + Linsitinib; first compound 0.03 µM) | relative viability (Omipalisib + Tozasertib; first compound 0.0003 µM) | relative viability (Omipalisib + Tozasertib; first compound 0.003 µM) | relative viability (Omipalisib + Tozasertib; first compound 0.03 µM) | relative viability (Omipalisib + Alpelisib; first compound 0.0003 µM) | relative viability (Omipalisib + Alpelisib; first compound 0.003 µM) | relative viability (Omipalisib + Alpelisib; first compound 0.03 µM) | relative viability (Omipalisib + Phenformin; first compound 0.0003 µM) | relative viability (Omipalisib + Phenformin; first compound 0.003 µM) | relative viability (Omipalisib + Phenformin; first compound 0.03 µM) | relative viability (Omipalisib + Olaparib; first compound 0.0003 µM) | relative viability (Omipalisib + Olaparib; first compound 0.003 µM) | relative viability (Omipalisib + Olaparib; first compound 0.03 µM)
1 | NCI-H2087 | 0.18 | 0.163 | 0.142 | 1.15 | 0.909 | 0.854 | 0.243 | 0.224 | 0.126 | 1.19 | 0.886 | 0.751 | 0.43 | 0.267 | 0.289 | 0.602 | 0.344 | 0.291
2 | HARA | 0.694 | 0.301 | 0.188 | 0.949 | 0.691 | 0.275 | 0.11 | 0.0779 | 0.0711 | 0.769 | 0.704 | 0.434 | 0.539 | 0.334 | 0.332 | 0.699 | 0.512 | 0.214
3 | COR-L 105 | 0.469 | 0.423 | 0.414 | 0.963 | 0.835 | 0.717 | 0.356 | 0.359 | 0.316 | 0.944 | 0.837 | 0.601 | 0.468 | 0.458 | 0.289 | 0.596 | 0.708 | 0.569
4 | NCI-H1944 | 0.355 | 0.246 | 0.197 | 1.21 | 0.854 | 0.481 | 0.237 | 0.217 | 0.192 | 0.884 | 0.638 | 0.441 | 0.183 | 0.148 | 0.126 | 0.334 | 0.349 | 0.203
5 | LOU-NH91 | 0.788 | 0.666 | 0.593 | 0.876 | 0.717 | 0.512 | 0.706 | 0.621 | 0.441 | 0.681 | 0.677 | 0.53 | 0.738 | 0.522 | 0.504 | 0.909 | 0.852 | 0.617
6 | EMC-BAC-2 | 0.569 | 0.571 | 0.436 | 0.797 | 0.693 | 0.438 | 0.266 | 0.27 | 0.261 | 0.759 | 0.663 | 0.505 | 0.476 | 0.368 | 0.334 | 0.391 | 0.407 | 0.252
7 | BEN | 0.828 | 0.671 | 0.602 | 0.669 | 0.497 | 0.554 | 0.43 | 0.426 | 0.457 | 0.781 | 0.58 | 0.585 | 0.259 | 0.277 | 0.27 | 1.01 | 0.769 | 0.607
8 | EKVX | 0.42 | 0.347 | 0.152 | 1.06 | 0.76 | 0.456 | 0.407 | 0.246 | 0.157 | 0.85 | 0.72 | 0.397 | 0.228 | 0.254 | 0.15 | 0.912 | 0.734 | 0.39
9 | NCI-H1666 | 0.872 | 0.592 | 0.61 | 0.689 | 0.719 | 0.41 | 0.605 | 0.524 | 0.552 | 0.968 | 0.718 | 0.509 | 0.547 | 0.559 | 0.487 | 0.687 | 0.749 | 0.686
10 | UMC-11 | 0.612 | 0.359 | 0.36 | 0.953 | 0.838 | 0.694 | 0.217 | 0.209 | 0.22 | 0.965 | 0.829 | 0.822 | 0.338 | 0.329 | 0.316 | 0.332 | 0.548 | 0.376
11 | SK-MES-1 | 0.512 | 0.419 | 0.285 | 1.02 | 0.785 | 0.69 | 0.901 | 0.875 | 0.53 | 0.847 | 0.66 | 0.458 | 0.66 | 0.618 | 0.428 | 0.674 | 0.52 | 0.26
12 | HCC-827 | 0.472 | 0.37 | 0.202 | 0.911 | 0.922 | 0.387 | 0.453 | 0.365 | 0.187 | 1.06 | 0.943 | 0.389 | 0.402 | 0.343 | 0.271 | 0.593 | 0.6 | 0.243
13 | LK-2 | 0.595 | 0.4 | 0.201 | 0.439 | 0.412 | 0.331 | 0.17 | 0.166 | 0.183 | 0.962 | 0.608 | 0.521 | 0.532 | 0.128 | 0.144 | 0.747 | 0.29 | 0.238
14 | ABC-1 |  |  |  | 0.771 | 0.572 | 0.586 | 0.161 | 0.189 | 0.213 | 0.734 | 0.879 | 0.677 | 0.221 | 0.234 | 0.224 | 0.911 | 0.764 | 0.619
15 | NCI-H2085 | 0.456 | 0.255 | 0.257 | 0.786 | 0.737 | 0.275 | 0.905 | 0.693 | 0.361 | 1.06 | 0.787 | 0.36 | 0.869 | 0.429 | 0.303 | 0.829 | 0.713 | 0.303
16 | NCI-H1792 | 0.42 | 0.169 | 0.116 | 0.417 | 0.441 | 0.164 |  |  |  | 0.664 | 0.6 | 0.236 | 0.351 | 0.115 | 0.0784 | 0.382 | 0.0789 | 0.0824
17 | HCC-44 | 0.983 | 0.921 | 0.468 | 0.658 | 0.457 | 0.282 | 1.03 | 0.953 | 0.234 | 0.742 | 0.619 | 0.29 | 0.202 | 0.141 | 0.102 | 1.01 | 0.974 | 0.534
